# Measurements from a melting point compilation (Tetko et al.; mined from patent text by program, amines drawn as free bases though some values may be those of a salt).
row,melting point [°C],Structure (SMILES)
1,123 to 124,Cn1cc(Br)cc(Nc2ccc(C3CNC3)cn2)c1=O
2,104 to 106,O=C(N[C@H](Cc1cccc(OC(F)(F)C(F)F)c1)[C@@H](O)c1ccc(CN2CCCCC2)cc1)c1cccc2c1C=CCCC2 (racemic)
3,182,COc1ccc(CCNC(=O)C(=O)Nc2ccncc2)cc1OC1CCCC1
4,161 to 163,CN1CC(c2ccc(S(C)(=O)=O)cc2)=C(c2ccc(Br)cc2)C1=O
5,114 to 115,COc1ccc2c(c1)c(-c1ccccc1)nc(=O)n2CC1CC1
6,138,CCOC(=O)C1=C(COCCNS(=O)(=O)NC(=O)c2ccco2)NC(C)=C(C(=O)OC)C1c1ccccc1Cl (stereo not drawn)
7,119 to 121,CCCC(=O)c1cnc2c(OC)cccc2c1Nc1ccsc1CC
8,129,CC(C)(C)Sc1cnn(-c2c(Cl)cc(C(F)(F)F)cc2Cl)c1N
9,199 to 200,O=C(NCCCC[C@H](NC(=O)OCc1ccccc1)C(=O)Nc1ccc(-c2ccc(C(=O)O)c(=O)[nH]2)cc1)OCc1ccccc1
10,45,CCOc1cc(Cl)c2cc(F)c(F)c(F)c2n1
11,94 to 96,Cn1c(C(F)(F)F)cc(=O)n(-c2cc(OC(=O)CCC(=O)OCCCl)c(Cl)cc2F)c1=O
12,107 to 109,CCN(CC)c1ccc(C=O)c(OCCN2CCOCC2)c1
13,200 to 202,CC(C)n1nc(-c2cnc(Nc3ccccc3)nc2-c2ccccc2)ccc1=O
14,65 to 70,CC1(C)C=Cc2cc(C(=O)NCCCCc3ccccc3)ccc2O1
15,155 to 157,CCOc1c(CN2CCCCC2)c2c(c3c1OC(C)(C)C3)C(c1cccc(NC(=O)c3ccccc3C(=O)O)c1)=NC(C)(C)C2
16,70 to 72,COC(=O)C1=C(C)NC(C)=C(C(=O)OCCN2CCN(C(c3ccccc3)c3ccccc3)CC2)C1c1cccc(C(F)(F)F)c1 (stereo not drawn)
17,156 to 166,COC(=O)c1ccc(CNC(=O)c2ccc(C(=O)NO)s2)cc1
18,145 to 149,COc1cccc(C2C(C(=O)O)CC(=O)N2c2ccccc2)c1 (stereo not drawn)
19,280 to 282,COc1cc(S(C)(=O)=O)ccc1-c1ccc(C#N)c(=O)[nH]1
20,172 to 174,CCCc1nc2c(N)nc(C)c(C)c2n1CCCCCS(=O)(=O)c1ccc(C(F)(F)F)cc1
21,199 to 200,COc1ccc(S(=O)(=O)Nc2ccccc2NC(=O)c2cnccc2C)cc1
22,132 to 134,NC(=O)c1cc(Cl)c(Cl)cc1C(=O)NCCN1CCC(c2noc3cc(F)ccc23)CC1

row,melting point [°C],Structure (SMILES)
1,185 to 186,Cc1cc(-c2nc3c(Cl)cccc3c(=O)n2-c2ccc(Br)cc2)cc(C)c1OCCO
2,375,O=C(O)c1cccc2c(=O)c3cc([N+](=O)[O-])ccc3[nH]c12
3,305 to 310,Cc1c(Cl)c(=O)[nH][nH]c1=O
4,215 to 217,CS(=O)(=O)N1C(=O)C2(COc3cc4c(cc32)OCO4)c2ccccc21 (stereo not drawn)
5,113 to 114,CSc1nnc(-c2ccc3occ(-c4cccc(OC(F)(F)F)c4)c3c2)o1
6,122 to 123,C(=C\c1nc(COc2ccc(CCCn3ccnc3)cc2)co1)/c1ccco1
7,89,CC(C(=O)N(c1ccccc1)c1ccccc1)N1C(=O)c2ccccc2C1=O (racemic)
8,114 to 115,Cc1cccc(/C(N)=C2\Sc3ccccc3C2=O)c1
9,147,Cc1cc(C)cc(-c2cnn3c(-c4cccc(C#N)c4)ccnc23)c1
10,207 to 210,N#CN=C1CCCN1C1=CC(CF)(CF)Oc2ccc(C(F)(F)C(F)(F)F)cc21
11,199 to 203,Cc1c(CC(N)=O)c2cc(OCCCP(=O)(O)O)ccc2n1Cc1ccccc1
12,74 to 76,Cn1cccc1C(=O)CS(C)=O (stereo not drawn)
13,116 to 119,COc1cccc(C)c1N(C(C)=O)C(C)=O
14,280 to 282,COc1ccc(Sc2c(O)c3c(Cl)cc(Cl)cc3[nH]c2=O)cc1
15,82 to 83,Cc1ccccc1C(=O)C=CC(=O)O
16,94 to 96,C[C@H]1[C@H](N2C(=O)c3ccccc3C2=O)C(=O)N1O (relative stereo)
17,232,O=C(Oc1ccccc1)Oc1c2c(nc3ccccc13)CCN(C(=O)Oc1ccccc1)CC2
18,110 to 111,COC(=O)COc1ccc(Cc2ncc(C(F)(F)F)cc2Cl)c(Cl)c1Cl
19,129 to 130,COc1cnc(C(=O)Nc2c(Cl)cncc2Cl)cc1OC1CCCC1
20,79 to 80,CCOC(=O)c1ccc(OCC2CCCCC2)c([N+](=O)[O-])c1
21,157 to 160,CCN(CC)C(=O)n1cc(F)c(=O)[nH]c1=O
22,110 to 112,CCCCCCC(NS(=O)(=O)c1ccc(Cl)cc1)C(=O)Nc1ccc(CC(=O)OCC)cc1 (racemic)

row,melting point [°C],Structure (SMILES)
1,118,COC(=O)c1ccc(Cc2cc3cc(Cl)ccc3[nH]2)cc1
2,> 300,O=C(O)c1cc(O)cc2nc3c(O)cccc3nc12
3,160 to 163,Cc1c(O)cc(O)cc1C(=O)OCc1ccc([N+](=O)[O-])cc1
4,338 to 339,Cc1cnc2[nH]cc(/C=C3\N=C(NCC(C)C)NC3=O)c2c1
5,77 to 79,CC1(C)C(=O)N(CCCl)C(=O)N1CCCl
6,116 to 117,CCOC(=O)C=CNC(=O)Nc1ccc(Cl)c(C(=O)OCC)c1
7,60 to 85,COc1ccc(CNc2nc(NCc3ccc(OC)cc3)c3[nH]nc(C(C)C)c3n2)cc1
8,208 to 209,Cn1cncc1-c1cccc(Nc2nccc3ccccc23)c1
9,209 to 214,O=C(CC1CCCCC1)Nc1c(Cl)ccc2nc(N3CCC[C@@H](O)C3)ccc12
10,185 to 188,COc1ccc(-c2ccc(NC(=O)CCc3ccc(CN4CCCC4)cc3)cc2)cc1
11,161,COc1cc(C(=O)OCc2cc(COC(=O)c3ccc(O)c(OC)c3)cc(COC(=O)c3ccc(O)c(OC)c3)c2)ccc1O
12,210,N#CCN1CCC(Nc2nc3ccccc3n2Cc2ccc(CO)o2)CC1
13,170 to 172,CCc1ccc(N(Cc2ccc(C(=O)N(C)C)cc2)C(=O)Nc2c(C(C)C)cccc2C(C)C)cc1
14,110 to 112,CC(C)C[C@H](NS(=O)(=O)c1cccnc1)C(=O)N[C@@H](C(C)C)[C@@H](O)c1c(-c2ccccc2)c1=O
15,218,NC1=NS(=O)(=O)c2cccc(Cl)c21
16,142 to 144,Cc1c(OCC(F)(F)F)ccnc1CSc1nc2ccccc2[nH]1
17,125 to 126,CC(C)CCS(=O)(=O)CC[C@H](O)[C@@H](N)CC(C)C
18,132 to 134,CCc1nc2nccc(-c3cccc(C(F)(F)F)c3)n2n1
19,128 to 129,Cc1c(NC(=O)c2ccc(-c3ccccc3Cl)cc2)ccc2cc(CN3CCCC3)cnc12
20,198 to 199,CCN1C(=O)c2cnc(-c3ccccc3)nc2Nc2ccccc21

row,Structure (SMILES),melting point [°C]
1,COC(CN1C(=O)CN=C(c2ccccc2)c2cc(Cl)ccc21)OC,117 to 119
2,CN1CC(C(=O)NCc2cccnc2)CC2c3cccc4c3c(cn4C)CC21 (stereo not drawn),185 to 187
3,O=C(O)CN1C(=O)C(NC(=O)Nc2ccc(Cl)cc2)N=C(c2ccccc2)c2ccccc21 (stereo not drawn),178 to 180
4,CN1C2CCC1[C@H](CO)[C@@H](c1cccs1)C2 (stereo partly drawn),154 to 158
